Measurements as given in ChEMBL document CHEMBL4765467, “Improving Thermodynamic Stability and Anticoagulant Activity of a Thrombin Binding Aptamer by Incorporation of 8-trifluoromethyl-2'-deoxyguanosine” (J Med Chem, 2021).
Activity calls are given as the source filed them. The rule behind the calls is not given here.

How the values were obtained:
Plasma [1] = assay: Anticoagulant activity in human plasma assessed prothrombin time in presence of 1.5 fold complementary sequence of TBA; format: functional, cell-free
Plasma [2] = assay: Anticoagulant activity in human plasma assessed prothrombin time in presence of complementary sequence of TBA; format: functional, cell-free
Rattus norvegicus = assay: Anticoagulant activity in ferric chloride-induced Sprague-Dawley rat carotid thrombosis model assessed as reduction in thrombus formation by measuring thrombus area at […], iv by H and E staining based analysis; format: functional; design: scale not given: the % may be the effect or the level left
Plasma [3] = assay: Anticoagulant activity in human plasma assessed prothrombin time at 0.25 to 1 uM; format: functional; conditions: dose 0.25-1 µM
[4] = Stability in 50% human plasma assessed as compound degradation at 50 uM measured within 3 hrs by PAGE analysis; format: ADME, cell-free
[5] = Thermodynamic stability assessed as change in melting temperature by CD spectroscopy relative to TBA; format: physicochemical
[6] = Stability in 50% human plasma assessed as compound degradation at 50 uM measured within 3 hrs by PAGE analysis relative to TBA; format: ADME, cell-free

| Stabilty [4] | deltaTm [5] | Stabilty [6] | Structure (SMILES) | Activity (Plasma [1]) | Activity (Plasma [2]) | Activity (Rattus norvegicus) | PT (Plasma [3]) |
| --- | --- | --- | --- | --- | --- | --- | --- |
| Unstable | 7.6 °C |  | Cc1cn([C@H]2C[C@H](OP(=O)(O)OC[C@H]3O[C@@H](n4cnc5c(=O)[nH]c(N)nc54)C[C@@H]3OP(=O)(O)OC[C@H]3O[C@@H](n4cnc5c(=O)[nH]c(N)nc54)C[C@@H]3OP(=O)(O)OC[C@H]3O[C@@H](n4cc(C)c(=O)[nH]c4=O)C[C@@H]3OP(=O)(O)OC[C@H]3O[C@@H](n4cnc5c(=O)[nH]c(N)nc54)C[C@@H]3OP(=O)(O)OC[C@H]3O[C@@H](n4cc(C)c(=O)[nH]c4=O)C[C@@H]3OP(=O)(O)OC[C@H]3O[C@@H](n4cnc5c(=O)[nH]c(N)nc54)C[C@@H]3OP(=O)(O)OC[C@H]3O[C@@H](n4cnc5c(=O)[nH]c(N)nc54)C[C@@H]3OP(=O)(O)OC[C@H]3O[C@@H](n4cc(C)c(=O)[nH]c4=O)C[C@@H]3OP(=O)(O)OC[C@H]3O[C@@H](n4cc(C)c(=O)[nH]c4=O)C[C@@H]3OP(=O)(O)OC[C@H]3O[C@@H](n4c(C(F)(F)F)nc5c(=O)[nH]c(N)nc54)C[C@@H]3OP(=O)(O)OC[C@H]3O[C@@H](n4cnc5c(=O)[nH]c(N)nc54)C[C@@H]3O)[C@@H](COP(=O)(O)O[C@H]3C[C@H](n4cc(C)c(=O)[nH]c4=O)O[C@@H]3COP(=O)(O)O[C@H]3C[C@H](n4cnc5c(=O)[nH]c(N)nc54)O[C@@H]3COP(=O)(O)O[C@H]3C[C@H](n4cnc5c(=O)[nH]c(N)nc54)O[C@@H]3COP(=O)(O)O)O2)c(=O)[nH]c1=O | inactive | inactive | 60% | 29.1 s |
| Unstable | 16.8 °C | Stable | Cc1cn([C@H]2C[C@H](OP(=O)(O)OC[C@H]3O[C@@H](n4c(C(F)(F)F)nc5c(=O)[nH]c(N)nc54)C[C@@H]3OP(=O)(O)OC[C@H]3O[C@@H](n4cnc5c(=O)[nH]c(N)nc54)C[C@@H]3OP(=O)(O)OC[C@H]3O[C@@H](n4cc(C)c(=O)[nH]c4=O)C[C@@H]3OP(=O)(O)OC[C@H]3O[C@@H](n4cnc5c(=O)[nH]c(N)nc54)C[C@@H]3OP(=O)(O)OC[C@H]3O[C@@H](n4cc(C)c(=O)[nH]c4=O)C[C@@H]3OP(=O)(O)OC[C@H]3O[C@@H](n4cnc5c(=O)[nH]c(N)nc54)C[C@@H]3OP(=O)(O)OC[C@H]3O[C@@H](n4cnc5c(=O)[nH]c(N)nc54)C[C@@H]3OP(=O)(O)OC[C@H]3O[C@@H](n4cc(C)c(=O)[nH]c4=O)C[C@@H]3OP(=O)(O)OC[C@H]3O[C@@H](n4cc(C)c(=O)[nH]c4=O)C[C@@H]3OP(=O)(O)OC[C@H]3O[C@@H](n4c(C(F)(F)F)nc5c(=O)[nH]c(N)nc54)C[C@@H]3OP(=O)(O)OC[C@H]3O[C@@H](n4cnc5c(=O)[nH]c(N)nc54)C[C@@H]3O)[C@@H](COP(=O)(O)O[C@H]3C[C@H](n4cc(C)c(=O)[nH]c4=O)O[C@@H]3COP(=O)(O)O[C@H]3C[C@H](n4cnc5c(=O)[nH]c(N)nc54)O[C@@H]3COP(=O)(O)O[C@H]3C[C@H](n4cnc5c(=O)[nH]c(N)nc54)O[C@@H]3COP(=O)(O)O)O2)c(=O)[nH]c1=O | inactive | inactive |  | 26.7 s |
